Twelve compounds from EP4260850A1, “PHARMACEUTICAL COMPOSITION COMPRISING PTEROSIN COMPOUND AND DERIVATIVE THEREOF AS ACTIVE INGREDIENT FOR PREVENTION OR TREATMENT OF PKA-RELATED DISEASE” (GHPharm Co., Ltd., priority 2020, dated 2022) can be followed below.

The test system of series [1] is NIH3T3 cells. Kind of series: MTT assay, cytotoxicity in normal cells. Conditions: for cytotoxicity: normal cells (NIH3T3), result in words. The class given is cell-based. As to the method:
(§1) NIH3T3 cells, as a mouse fibroblast cell line, and B16F10 cells, as a mouse melanoma cell line, were dispensed into a 96 well plate at 2×10^3 cells/well, and cultured in DMEM supplemented with 10% fetal bovine serum (FBS) at 5% CO2 and 37°C. Compounds (pterosin A, pterosin B, pterosin C, pterosin D, pterosin P, pterosin Z, pteroside A, pteroside B and pteroside Z) were treated at different concentrations and then cultured for 48 hours. Thereafter, MTT solution (5 mg/ml) was added to each well at a concentration of […] and incubated at 37°C for 4 hours. […] After incubation for 10 minutes, optical density was measured at 550 nm by using a Microplate Reader (Molecular Devices, Spectra Max, USA). An optical density is an index representing the number of surviving cells and is calculated by the formula below, and reproducibility was confirmed through three experiments. Cell proliferation rate (%) = OD550 (sample)/OD550; (control) × 100 [formula]
(§2) As described in the experimental method, mouse embryo fibroblast cell-line (NIH3T3) as a normal cell and Mouse melanoma cell-line (B16F10) as a cancer cell were cultured in a 96-well plate, and each compound was added to the cell medium at each concentration and cultured for 48 hours, MTT was then administered, and the optical density was measured at 550 nm by using a microplate reader. The optical density is an index representing the number of surviving cells and calculated by the following formula, and reproducibility was confirmed through three experiments. Cell proliferation rate (%) = OD550 (sample)/OD550; (control) × 100 [formula]
(§3) Then, the LD50 (Lethal Dose 50) value was calculated based on the change in cell proliferation rate.
For orientation: Formazan colour is commonly taken as a measure of viable cells.

In series [2] the test system is B16F10 cells. Kind of series: MTT assay, cytotoxicity in cancer cells. The conditions noted are these: for cytotoxicity: cancer cells (B16F10), result in words. Format: cell-based. How it is done: as §1, §2, §3
Series [3] concerns CREB. The series can be described thus: Western blot for CREB phosphorylation level in astrocytes. The class given is cell-based. Conditions: FIG. 2. How it is done:
(§4) Western blot analysis was performed by using the following method. Cells were lysed in RIPA buffer (20 mM Tris-Cl pH 7.4, 1 mM EDTA, 150 mM NaCl, 1% Triton X-100, 1 mM EGTA, 1 µM Na3VO4, 2.5 mM sodium pyrophosphate, 1 µM phenylmethylsulfonyl fluoride, 1 ug/ml leupeptin). The protein concentration was calculated by using BCA Protein Assay Reagent (BioRad, Hercules, CA, USA). Protein samples were separated by SDS-PAGE and transferred to polyvinylidene difluoride (PVDF) membranes (Millipore, Bedford, MA, USA). Membranes were incubated overnight at 4 °C with primary antibodies followed by HRP-conjugated goat anti-rabbit IgG (1:5,000; Pierce; Carlsbad, CA, USA). The used primary antibodies were actin (sigma; 1:1000), p-CREB (Cell signaling; 1:1000), tubulin (Cell signaling; 1:1000), p-PKA (Cell signaling; 1:1000), p -trk (Cell signaling; 1:1000) and BDNF (Abcam; 1:1000). All membranes were visualized by using a UVP Autochemi Darkroom Imaging System (Utra-Violet Products Ltd. UK) and Immobilon Crescendo Western HRP Substrate or Luminata Forte Western HRP Substrate (Millipore, USA).
In general terms: In western blotting, separated proteins are transferred to a membrane and probed.

Series [4] deals with CREB. Kind of series: Western blot for CREB phosphorylation level in neurons. The conditions noted are these: for CREB phosphorylation: 10 µM, FIG. 2, against positive control amx; for phosphorylation of CREB: FIG. 8, compared with pterosin B. Format: cell-based. How it is done: as §4
In series [5] the test system is hippocampal slice. Kind of series: Electrophysiology in hippocampal slices (fEPSP, LTP). More on the design: species or system mouse. The conditions noted are these: theta-burst stimulation, FIG. 10. As to the method:
• 1. The brain of a 4-month-old mouse was placed on an ice-cold dissection buffer, and a 300 µm-thick sagittal hippocampal slice was prepared by using a vibratome (dissection buffer: contents in mM: […], 25 NaHCO3, 5 KCl, 1.25 NaH2PO4, 0.5 CaCl2, 3.5 MgSO4, 10 D-glucose, 1.25 L-ascorbic acid and 2 Na-pyruvate bubbled with 95% O2/5% CO2). • 2. Slices were recovered at 32°C for 1 hour in normal ACSF (ACSF: mM: 125 NaCl, 2.5 KCl, 1.25 NaH2PO4, 25 NaHCO3, 10 glucose, 2.5 CaCl2 and 1.3 MgCl2 oxygen in 95% O2/5% CO2). • 3. During recording, the slices were moved to a chamber submerged in ACSF at 28°C, and ACSF saturated with 95% O2/5% CO2 was continuously perfused (2ml/min). A Micropipette for stimulation and recording was fabricated by using boron acid glass capillaries (Harvard Instruments) and a micropipette electrode puller. • 4. For input/output, paired-pulse ratio, and long-term potentiation (LTP) experiments, an ACSF-filled pipette (resistance: […]) was used to test the hippocampus. A field excitatory post-synaptic potential (fEPSP) was measured in the CA1 region. The fEPSP signal was amplified by using Multiclamp 700B (Molecular Devices) and digitized by using Digidata 1440A (Molecular Devices). […] The pair-pulse ratio was measured after giving the pair stimulation at intervals of 25, 50, 75, 100, 200, and 300 ms . • 6. […]

For series [6], the system named is nerve cells (Neuron). Kind of series: Neuron proliferation, differentiation and regeneration promoting ability (microscopy). The class given is cell-based. The conditions noted are these: against control group, FIG. 11. As to the method:
The abilities of pterosin compounds to promote nerve cell proliferation, differentiation and regeneration were evaluated.

The nature of series [7]: Blood-brain barrier permeability (Stirwell PAMPA sandwich, BBB-1-lipid). Conditions: for Papp at 4 h: PAMPA, pH 7.4, Pe Average. How it is done: Progesterone was used as a positive control and ranitidine was used as a negative control: • (1) A donor buffer at pH 7.4 was dispensed to a deep well plate and mixed with a test substance. • (2) The donor buffer was dispensed into a U.V plate by 150ul per well, and the optical density was measured: blank value. • (3) The mixture was dispensed in the deep well plate into the U.V plate by 150ul per well, and then the optical density was measured: blank value. • (4) 200ul of the mixture in step 1) was dispensed into the donor plate of the Stirwell PAMPA sandwich. • (5) The membrane of the acceptor plate of the Stirwell PAMPA sandwich was coated with 5 ul of BBB-1-lipid. • (6) A brain sink buffer was dispensed into each well on the acceptor plate by 200 ul. • (7) The acceptor plate and donor plate were combined and incubated at 25°C for 4 hours. • (8) After 4 hours of incubation, the acceptor plate and donor plate were separated, and 150 µl each was transferred to a UV plate, and the optical density was measured.

Setting [8] is: Cancer cell B16F10, cultured 48 hours, MTT, OD 550 nm.
[9] abbreviates: Normal cell NIH3T3, cultured 48 hours, MTT, OD 550 nm.
Setting [10] is: pH 7.4, 25°C, 4 hours, controls 50 µM, Pterosin D 12.5 µM.

Read-outs that look alike come from different tables or passages of the source. A value given as a limit tells only on which side of the number the result lay.

Consider `Cc1cc2c(c(C)c1CCO)C(=O)[C@H](C)C2` [Compound 2, (2R)-pterosin B], for which the cytotoxicity entry in series [1] and in series [2] was “little cytotoxicity” throughout. In series [2] (setting [8]), the LD50 was >5,000 µM. Also, the figures for the CREB phosphorylation entry in series [3] and in series [4] were “no effect” and “did not increase CREB phosphorylation at all”, respectively.

Consider `Cc1cc2c(c(C)c1CCO)C(=O)C(C)(C)C2` [Compound 3, pterosin Z], for which the cytotoxicity result in series [1] and in series [2] was “weak cytotoxicity” throughout. The CREB phosphorylation entry in series [3] was “no effect”; in series [4], “did not increase CREB phosphorylation at all”.

For `Cc1c(CCO)c(CO)cc2c1C(=O)[C@@H](C)C2` [Compound 4, (2S)-pterosin P], the LD50 in series [1] (setting [9]) and in series [2] (setting [8]) was >5,000 µM in each case. Besides, the cytotoxicity entry in series [1] and in series [2] was “little cytotoxicity” each time. For the same compound, the CREB phosphorylation result in series [3] is on record as “no effect”; in series [4], “did not increase CREB phosphorylation at all”.

One may read the Papp as a coefficient for how fast a substance crosses the barrier. For the compound `Cc1cc2c(c(C)c1CCO)C(=O)C(C)(C)[C@@H]2O` [Compound 5, (3R)-pterosin D], the “hippocampus mossy fiber-CA1 LTP” value in series [5] is “particularly strong”. Also, the LD50 in series [1] (setting [9]) is recorded as >5,000 µM. Further, the cytotoxicity entry in series [1] was “little cytotoxicity”. For the same compound, the “length of nerve cells” value in series [6] is given as “significantly longer”. Also, the LD50 in series [2] (setting [8]) is reported as >5,000 µM. Moreover, the cytotoxicity entry in series [2] is “little cytotoxicity”. Moreover, the CREB phosphorylation entry in series [3] was “no effect”. In series [4], the CREB phosphorylation entry was “significantly increased” and the “phosphorylation of CREB” value is reported as “statistically significantly increased”. Moreover, in series [7] (setting [10]), the Papp at 4 h came to 20.9 ×10⁻⁶ cm/s, the “Pe 1st” value is 19.74 10^-6cm/sec, the “Pe 2nd” value is reported as 20.20 10^-6cm/sec and the “Pe 3rd” value is 22.73 10^-6cm/sec. The “BCS code, CNS +/- (spreadability to CNS)” value in series [7] (pH 7.4, controls 50 µM, Pterosin D 12.5 µM) is recorded as “CNS+ (>10)”.

Take `Cc1cc2c(c(C)c1CCO)C(=O)[C@](C)(CO)C2` [Compound 6, (2S)-pterosin A]: the LD50 in series [1] (setting [9]) is recorded as >5,000 µM. Besides, the cytotoxicity entry in series [2] is recorded as “weak cytotoxicity only in cancer cells”. For the same compound, the CREB phosphorylation result in series [3] is “no effect”. In series [4], the CREB phosphorylation entry is “significantly increased” and the “phosphorylation of CREB” value was “statistically significantly increased”.

On to `Cc1cc2c(c(C)c1CCO)C(=O)[C@H](C)[C@H]2O` [Compound 7, (2R,3R)-pterosin C], for which the LD50 in series [1] (setting [9]) and in series [2] (setting [8]) was >5,000 µM throughout.

As for `Cc1cc2c(c(C)c1CCO)C(=O)[C@@H](C)[C@H]2O` [Compound 8, (2S,3R)-pterosin C], the LD50 in series [1] (setting [9]) and in series [2] (setting [8]) was >5,000 µM each time.

Take `Cc1cc2c(c(C)c1CCO[C@@H]1O[C@H](CO)[C@@H](O)[C@H](O)[C@H]1O)C(=O)[C@H](C)C2` [Compound 9, (2R)-pteroside B]: the LD50 in series [1] and in series [2] was >5,000 µM in each case.

For the compound `Cc1cc2c(c(C)c1CCO[C@@H]1O[C@H](CO)[C@@H](O)[C@H](O)[C@H]1O)C(=O)C(C)(C)C2` [Compound 10, pteroside Z], the LD50 in series [1] and in series [2] was >5,000 µM throughout.

Consider `Cc1cc2c(c(C)c1CCO[C@@H]1O[C@H](CO)[C@@H](O)[C@H](O)[C@H]1O)C(=O)[C@](C)(CO)C2` [Compound 11, (2S)-pteroside A], for which the LD50 in series [1] and in series [2] was >5,000 µM throughout.

Regarding `CC(=O)[C@H]1CC[C@H]2[C@@H]3CCC4=CC(=O)CC[C@]4(C)[C@H]3CC[C@]12C` [Progesterone, reference compound], the Papp at 4 h in series [7] came to 28.8 ×10⁻⁶ cm/s.

As for `Cc1cc2c(c(C)c1CCO)C(=O)[C@@H](C)[C@@H]2O` [pterosin C], the “hippocampus mossy fiber-CA1 LTP” value in series [5] is “particularly strong”. Further, the CREB phosphorylation entry is “no effect” in series [3] and “significantly increased” in series [4]. Besides, the “phosphorylation of CREB” value in series [4] is on record as “statistically significantly increased”.
